These are literature values, as cited in US20240174620A1, “SOLID FORMS OF SAFLUFENACIL-SODIUM AND SAFLUFENACIL-POTASSIUM, PROCESS OF PREPARATION AND USE THEREOF” (ADAMA AGAN LTD., priority 2021, published 2024).

The structures appear in SMILES notation. Like-named read-outs stand apart in the source and are kept apart here. Some results are limits rather than exact numbers.

Test in series [1]: not given
The source holds these as a separate data set.

As for `CC(C)N(C)S(=O)(=O)NC(=O)c1cc(-n2c(=O)cc(C(F)(F)F)n(C)c2=O)c(F)cc1Cl` [Saflufenacil], the “solubility in 1-octanol” value (1-octanol, 20° C.) is reported as less than 0.01 g/100 mL. Under “acetone, 20° C.”, the solubility in acetone is recorded as 27.5 g/100 mL. For the same molecule, for the setting “acetonitrile, 20° C.”, the solubility in acetonitrile is listed as 19.4 g/100 mL. The “solubility in ethyl acetate” value (ethyl acetate, 20° C.) was 6.55 g/100 mL. For the same molecule, for the setting “isopropyl alcohol, 20° C.”, the “solubility in isopropyl alcohol” value is recorded as 0.25 g/100 mL. Further, for the setting “methanol, 20° C.”, the solubility in methanol is listed as 2.98 g/100 mL. Moreover, the solubility in n-heptane (n-heptane, 20° C.) is given as less than 0.005 g/100 mL. Besides, for the setting “tetrahydrofurane, 20° C.”, the solubility in tetrahydrofurane is on record as 36.2 g/100 mL. The solubility in toluene (toluene, 20° C.) is listed as 0.23 g/100 mL. The solubility in water is reported as 0.0025 g/100 mL (pH 5, 20° C.) and 0.21 g/100 mL (pH 7, 20° C.). In addition, the pKa in series [1] was 4.41.
